Laboratory results from patent publication US4863918A, “Enamine quaternary compounds, methods of making and their use as muscle relaxants” (BOC, Inc., priority 1988, dated 1989).

Tests used:
[1] = test system: paw twitch; assay: Twitch depression (muscle relaxant effect) in anesthetized rabbits; rabbit paw twitch; assay type: in vivo, New Zealand White rabbits; conditions: for ED90: Oryctolagus cuniculus, read-out: Equi-efficacious dose
Method: [The procedure below names another organism; the source lists this organism under the same test.] Mongrel dogs were injected with 50 mg/kg of pentobarbital until the onset of anesthesia as determined by the eyeblink reflex test. The injectable solutions prepared above were administered intravenously to the anesthesized mongrel dogs and measurements were made of the muscle relaxant effect including maximum twitch depression, onset, duration and recovery time in a clinically known manner. Each of the subjects were compared with a control animal receiving an injection of distilled water.
The same compound of the present invention as in
A number of compounds in accordance with the present invention were tested for their neuromuscular blockade Properties. Specifically, the acid addition salts of the compounds were dissolved in sterile water for injection.

[2] = Cardiovascular change (HR, BP) at equi-efficacious dose in rabbits; assay type: in vivo; conditions: rabbit
[3] = Table IV, rabbit, at equi-efficacious dose
[4] = Table IV, at equi-efficacious dose
[5] = Table VI, rabbit paw twitch, at indicated dose
[6] = Table VIII, rabbit paw twitch, at indicated dose
[7] = Table IV, rabbit, at equi-efficacious dose, depolarizer, based on twitch recovery not to-f
[8] = Table VII, rabbit paw twitch, at indicated dose
[9] = Table VI, rabbit paw twitch, at indicated dose, in s

Molecule: COc1ccc2cc1Oc1cc3c(cc1OC)CC[N+](C)(C)[C@H]3Cc1ccc(cc1)Oc1c(OC)c(OC)cc3c1[C@@H](C2)[N+](C)(C)CC3 [metocurine]
- ED90 ([1]; Table IV, rabbit paw twitch): 0.025 mg/kg
- Duration (DURAT.) [1, 3]: 37.8 min
- Onset [1, 3]: 72.4 s
- Recovery (RECOV.) [1, 3]: 34.9 min
- BP % [2, 4]: -1.6%
- HR % [2, 4]: 0.2%

Molecule: CC1(C)CC(N2CCC3(CC2)OCC2(CO3)COC3(CCN(C4=CC(=[N+]5CCCC5)CC(C)(C)C4)CC3)OC2)=CC(=[N+]2CCCC2)C1 [compound 46]
- Onset [1, 5]: 62.8 s

Molecule: CC1(C)CC(N2CCCC3(CC2)OCC2(CO3)COC3(CCCN(C4=CC(=[N+]5CCCC6(C5)OCCO6)CC(C)(C)C4)CC3)OC2)=CC(=[N+]2CCCC3(C2)OCCO3)C1 (stereo not drawn) [No. 14]
- Onset [1, 6]: 44.5 s

Molecule: CC1CC(N2CCC3(CC2)OCC2(CO3)COC3(CCN(C4=CC(=[N+]5CCCC6(CC5)OCCO6)CC(C)C4)CC3)OC2)=CC(=[N+]2CCCC3(CC2)OCCO3)C1 (stereo not drawn) [compound 42]
- Onset [1, 5]: 75.6 s

Molecule: C[N+](C)(C)CCCCCCCCCC[N+](C)(C)C [decamethonium]
- ED90 ([1]; Table IV, rabbit paw twitch): 0.165 mg/kg
- Onset [1, 3]: 104.0 s
- Duration (DURAT.) [1, 7]: 41.7 min
- Recovery (RECOV.) [1, 7]: 41.7 min
- BP % [2, 4]: -2.6%
- HR % [2, 4]: -2.8%

Molecule: CC1(C)CC(N2CCCC3(C2)OCC2(CO3)COC3(CCCN(C4=CC(=[N+]5CCCC6(CC5)OCCO6)CC(C)(C)C4)C3)OC2)=CC(=[N+]2CCCC3(CC2)OCCO3)C1 (stereo not drawn) [No. 13]
- Onset [1, 8]: 36.5 s

Molecule: CC1(C)CC(N2CCCC3(CC2)OCC2(CO3)COC3(CCCN(C4=CC(=[N+]5CCCCCC5)CC(C)(C)C4)CC3)OC2)=CC(=[N+]2CCCCCC2)C1 (stereo not drawn) [No. 13]
- Onset [1, 6]: 88.3 s

Molecule: CCC[N+](CC1CC1)=C1C=C(N2CCC3(CC2)OCC2(CO3)COC3(CCN(C4=CC(=[N+](CCC)CC5CC5)CC(C)(C)C4)CC3)OC2)CC(C)(C)C1 [compound 21]
- Onset [1, 5]: 47.7 s

Molecule: CC1=C(N2CCC3(CC2)OCC2(CO3)COC3(CCN(C4=C(C)C(=[N+]5CCCCCC5)CC4)CC3)OC2)CCC1=[N+]1CCCCCC1 [compound 38]
- Onset [1, 9]: 100.0

Molecule: CC[N+](CCC1OCCO1)=C1C=C(N2CCC3(CC2)OCC2(CO3)COC3(CCN(C4=CC(=[N+](CC)CCC5OCCO5)CC(C)(C)C4)CC3)OC2)CC(C)(C)C1 [compound 53]
- Onset [1, 5]: 58.6 s

Molecule: CC1(C)CC(N2CCC3(CC2)OCC2(CO3)COC3(CCN(C4=CC(=[N+]5CCC(c6ccccc6)CC5)CC(C)(C)C4)CC3)OC2)=CC(=[N+]2CCC(c3ccccc3)CC2)C1 (stereo not drawn) [compound 31]
- Onset [1, 9]: 105.6

Molecule: CC[N+](CC1CC1)=C1C=C(N2CCCC3(C2)OCC2(CO3)COC3(CCCN(C4=CC(=[N+](CC)CC5CC5)CC(C)(C)C4)C3)OC2)CC(C)(C)C1 (stereo not drawn) [No. 17]
- Onset [1, 8]: 39.3 s

Molecule: CC1(C)CC(N2CCC3(CC2)OCC2(CO3)COC3(CCN(C4=CC(=[N+]5CCCCCC5)CC(C)(C)C4)CC3)OC2)=CC(=[N+]2CCCCCC2)C1 [compound 44]
- Onset [1, 5]: 67.2 s

Molecule: CC1CC[N+](=C2C=C(N3CCC4(CC3)OCC3(CO4)COC4(CCN(C5=CC(=[N+]6CCC(C)CC6)CC(C)(C)C5)CC4)OC3)CC(C)(C)C2)CC1 (stereo not drawn) [compound 28]
- Onset [1, 5]: 49.9 s

Molecule: CC1(C)CC(N2CCC3(CC2)OCC2(CO3)COC3(CCN(C4=CC(=[N+]5CCCCCC5)CC(C)(C)C4)CC3)OC2)=CC(=[N+]2CCCCCC2)C1 [compound 29]
- Onset [1, 5]: 56.1 s

Molecule: CCOC(=O)C[N+](CC)=C1C=C(N2CCC3(CC2)OCC2(CO3)COC3(CCN(C4=CC(=[N+](CC)CC(=O)OCC)CC(C)(C)C4)CC3)OC2)CC(C)(C)C1
- Onset [1, 5]: 39 s

Molecule: CC1CCC[N+](=C2C=C(N3CCCC4(C3)OCC3(CO4)COC4(CCCN(C5=CC(=[N+]6CCCC(C)C6)CC(C)(C)C5)C4)OC3)CC(C)(C)C2)C1 (stereo not drawn) [No. 20]
- Onset [1, 8]: 44.9 s

Molecule: CC1(C)CC(N2CCC3(CC2)OCC2(CO3)COC3(CCN(C4=CC(=[N+](Cc5ccco5)Cc5ccco5)CC(C)(C)C4)CC3)OC2)=CC(=[N+](Cc2ccco2)Cc2ccco2)C1 [compound 11]
- Onset [1, 5]: 77.3 s

Molecule: CC[N+](CC)=C1C=C(N2CCC3(CC2)OCC2(CO3)COC3(CCN(C4=CC(=[N+](CC)CC)CC(C)C4)CC3)OC2)CC(C)C1 (stereo not drawn) [compound 41]
- Onset [1, 5]: 51 s

Molecule: descuronium
- Equi-efficacious dose ([1]; Table IV, rabbit paw twitch): 0.053 mg/kg
- Duration (DURAT.) [1, 3]: 21.5 min
- Onset [1, 3]: 129.4 s
- Recovery (RECOV.) [1, 3]: 13.1 min
- BP % ([2]; in vivo): -7.6%
- HR % ([2]; in vivo): -4.1%

Molecule: CCC[N+](CC1CC1)=C1C=C(N2CCC3(CC2)OCC2(CO3)COC3(CCN(C4=CC(=[N+](CCC)CC5CC5)CC(C)C4)CC3)OC2)CC(C)C1 (stereo not drawn) [compound 56]
- Onset [1, 5]: 62.3 s
